Laboratory results: patent US10966996B2, “Glechoma longitube extract, preparation method for same, and use thereof in sugar reduction, weight loss, and lipid reduction” (SHANGHAI INSTITUTE OF MATERIA MEDICA CHINESE ACADEMY OF …, priority 2014, dated 2021)

Key:
hDGAT1 = molecular target: T1, hDGAT1 (Homo sapiens, UniProt O75907); experiment: inhibitory activity against hDGAT1 (CPM fluorescence); assay type: biochemical; conditions: for inhibition at 10 µM: read-out: Inhibition rate (%) (10 μM) against hDGAT1; for inhibition at 50 µM: read-out: Inhibition rate (%) (50 μM) against hDGAT1
T1 construct: made in house; host or cells: insect cells
T1 sequence (O75907 1-488): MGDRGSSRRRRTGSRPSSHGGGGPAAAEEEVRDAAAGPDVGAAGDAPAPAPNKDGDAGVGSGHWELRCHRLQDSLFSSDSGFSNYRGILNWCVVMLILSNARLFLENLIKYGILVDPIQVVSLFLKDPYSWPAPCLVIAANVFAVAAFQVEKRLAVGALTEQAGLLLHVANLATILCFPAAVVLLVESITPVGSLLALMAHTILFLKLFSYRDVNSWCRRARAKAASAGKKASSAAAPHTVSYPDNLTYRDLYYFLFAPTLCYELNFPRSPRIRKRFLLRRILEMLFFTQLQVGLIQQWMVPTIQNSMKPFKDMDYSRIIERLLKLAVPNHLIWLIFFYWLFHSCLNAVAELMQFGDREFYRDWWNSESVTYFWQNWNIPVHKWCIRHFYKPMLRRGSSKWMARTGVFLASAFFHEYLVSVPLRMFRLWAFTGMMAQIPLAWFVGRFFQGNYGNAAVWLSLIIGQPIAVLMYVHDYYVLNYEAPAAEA
Procedure: Experimental method: (1) the effect of the extract of Glechoma longituba (Nakai) Kupr., LQC-H-1, on serum triglyceride level was evaluated in acute hypertriglyceridemic mouse model; 6-week old male C57BL/KsJ mice (Shanghai Slac Laboratory Animal Company), 8 for each group, weight of 20±2 g, were fed according to SPF grade operation procedure and fasted overnight for 16 hours prior to experiment. Compounds of different concentrations were intragastric administrated to each administration group of mice, respectively. Equal volume of water was given to control group and blank group of mice. 30 mins later, 2 g/kg olive oil was intragastric administrated to administration group and control group of mice, while equal volume of water was given to blank group of mice. 2 hours later, blood was collected from orbital vein of each group of mice for the separation of serum, and concentration of triglyceride in the serum was measured; (2) inhibitory activity of the individual compounds separated from the extract of Glechoma longituba (Nakai) Kupr., LQC-H-1, against diacylglycerol acyltransferase (DGAT): human derived DGAT1 obtained by expression and purification with insect cells were pre-incubated together with the compounds, substrate diacylglycerol was added to initiate the reaction in the presence of coenzyme A, fluorescence signal generated by the combination of produced sulfydryl and CPM was measured, and the inhibitory activity of the compound against DGAT was calculated according to the following formula: Inhibition rate %=(OD blank−OD compound)/(OD blank−OD negative control)*100%
(§1) OD compound, OD blank, and OD negative control represented the fluorescence values from a compound well, a blank well, and a negative control well free of DGAT1 enzyme, and the concentrations of the compounds when the enzyme activity inhibition rate (%) reached 50% were set as IC50 value; (3) inhibitory activity of the individual compounds separated from the extract of Glechoma longituba (Nakai) Kupr., LQC-H-1, against pancrelipase: substrate p-Nitrophenyl acetate (Sigma, USA) was formulated to 1.35 mM with phosphate buffer (25 mM, pH 6.8); porcine pancrelipase (Sigma) was formulated to 10 mg/ml with phosphate buffer; brominated eneyne compounds were formulated to solutions of different concentrations with phosphate buffer. Then, 50 μl of 1.35 mM p-Nitrophenyl acetate (Sigma, USA) solution and 10 μl of test compounds of different concentrations were sequentially added into a 96-well plate and pre-incubated at 37° C. for 5 mins. Finally, 50 μl of 10 mg/ml pancrelipase (EC 3.1.1.3, Sigma, USA) was added and mixed. The reaction proceeded at 37° C. for further 20 mins Absorbance of each well was measured at 492 nm. The inhibition rates (%) of the test samples against pancrelipase were calculated based on the absorbance at 492 nm. The concentrations of the compounds when then enzyme activity inhibition rate (%) reached 50% was set as IC50 value. The inhibition rate (%) could be calculated according to the following formula: Inhibition rate (%)=[(A−B)−(C−D)]/(A−B)×100

porcine pancrelipase = molecular target: T2, porcine pancrelipase (Sus scrofa, UniProt P00591); experiment: inhibitory activity against pancrelipase (p-Nitrophenyl acetate substrate); assay type: biochemical; conditions: read-out: Inhibition rate % (50 μM) against pancrelipase
T2 construct: purchased Sigma
T2 sequence (P00591 1-450): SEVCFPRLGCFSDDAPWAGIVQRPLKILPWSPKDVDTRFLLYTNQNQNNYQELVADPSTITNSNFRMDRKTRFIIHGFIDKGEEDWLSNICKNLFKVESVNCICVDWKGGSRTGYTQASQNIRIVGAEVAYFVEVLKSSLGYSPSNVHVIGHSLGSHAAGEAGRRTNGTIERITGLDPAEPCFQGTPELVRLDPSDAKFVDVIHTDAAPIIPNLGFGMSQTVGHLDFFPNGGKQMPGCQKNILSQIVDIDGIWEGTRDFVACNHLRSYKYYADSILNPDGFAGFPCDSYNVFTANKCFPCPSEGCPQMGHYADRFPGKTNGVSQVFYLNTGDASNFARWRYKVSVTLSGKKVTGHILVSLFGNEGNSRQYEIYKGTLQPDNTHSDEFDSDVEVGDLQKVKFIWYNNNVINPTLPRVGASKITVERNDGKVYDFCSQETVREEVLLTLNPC
Source text: as §1
In the above formula, A, B, C, and D represented the absorbance of a blank well after the reaction, the absorbance of a blank well prior to the reaction, the absorbance of a sample well after the reaction, and the absorbance of a sample well prior to the reaction.

db/db mice = experiment: acute oral glucose tolerance in db/db mice; assay type: in vivo; conditions: 100 mg/kg
Procedure: Oral glucose tolerance test (OGTT) method: 8-week old male C57BL/KsJ mice (Shanghai Slac Laboratory Animal Company), 8 for each group, weight of 20±2 g, were fed according to SPF grade operation procedure and fasted for 16 hours prior to experiment. Blood was collected from tail vein of each group of mice prior to experiment. Blood glucose concentrations were measured using Roche ACCU-CHEK glucometer and recorded as time 0. Different concentrations of the compound were intragastric administrated to each administration group of mice, respectively. Equal volume of distilled water was given to control group of mice. The dosage volume was 10 ml/kg. Half an hour after administration, 5 g/kg glucose was intragastric administrated to each group of mice. Blood glucose concentrations of each group of mice were measured and recorded at 20 mins, 40 mins, and 80 mins after the intragastric administration. OGTT curves were recorded. Areas under the curves (AUC) were calibrated with the data in blood glucose of mice to which glucose was not given (calibration group). ONE-WAY-ANOVA was used to compare significant difference between each group (Note: all the experimental methods for acute oral glucose tolerance test in the following activity examples are the same to the experimental method in Example 5, unless otherwise indicated). […]

inhibition at 10 µM (hDGAT1) | inhibition at 50 µM (hDGAT1) | inhibition at 50 µM (porcine pancrelipase) | SMILES | acute oral glucose tolerance in db/db mice (db/db mice)
~20% | > 50% | 41.9% | O=C(O)C1O[C@@H](OC2C(O)[C@H](O)C(C(=O)O)O[C@H]2Oc2cc(O)c3c(=O)cc(-c4ccc(O)c(O)c4)oc3c2)C(O)C(O)[C@@H]1O (stereo partly drawn) [Compound I, luteolin-7-O-[β-glucuronosyl(1→2)β-glucuronic acid]] | significantly enhances acute oral glucose tolerance
~20% | > 50% | 41.6% | O=C(O)C1O[C@@H](OC2C(O)[C@H](O)C(C(=O)O)O[C@H]2Oc2cc(O)c3c(=O)cc(-c4ccc(O)cc4)oc3c2)C(O)C(O)[C@@H]1O (stereo partly drawn) [Compound II, apigenin-7-O-[β-glucuronosyl(1→2)β-glucuronic acid]] | 
